What was measured:
[1] = in vivo activity of glycoside prodrug (preliminary); details: preliminary results
[2] = in vitro activity of glycoside prodrug (preliminary); details: preliminary results

## OC[C@H]1O[C@@H](OCc2ccc(-c3ccc(-c4cccs4)s3)s2)[C@H](O)[C@@H](O)[C@@H]1O [β-D-glucoside of 2-hydroxymethyl-∝-terthiophene]
[1]
  in vivo activities: retains
[2]
  in vitro activities: retains

Source: patent EP1021178B1, “SELENOPHENE ANTI-TUMOR AGENTS” (Purdue Research Foundation, priority 1996, dated 1997)
